This is an account of results in patent US4263323A, “β-Receptor blocking compounds and treatment of cardiovascular disorders therewith” (priority 1979, dated 1981).

For test [1], the target named is T1, cardiac β-receptors (Felis catus, UniProt Q9TST6).
T1 construct: from tissue; host or cells: heart of the living, reserpinized, anesthetized cat (in vivo heart rate)
As to the kind of experiment: β-blockade of isoprenaline heart rate response, reserpinized anesthetized cat. It counts as in vivo. Particulars: iv, 0.012-51.2 μmol/kg, isoproterenol 0.1 μg/kg i.v. The method, then:
The new compounds have valuable pharmacological properties. Thus they block cardiac β-receptors, which is shown at the determination of the antagonism of tachycardia after an intravenous injection of 0.1 ug/kg of 1-isoproterenol sulphate on an anaesthetized cat at an intravenous dose of 0.012-51.2 umol/kg. The compounds are heart selective with regard to their β-blocking activity.
The agents of the present invention were tested as regards their biological properties. All compounds were thereby tested in anesthetized cats (males and females weighing 2.5-3.5 kg) pretreated with reserpine (5 mg/kg bodyweight administered intramuscularly) about 16 hours before the experiments. The animals were pretreated with reserpine in order to eliminate the endogenous sympathetic control of heart rate and vascular smooth muscle tone. The cats were anesthetized with pentobarbital (30 mg/kg bodyweight administered i.p.) and artificially ventilated with room air. A bilateral vagotomy was performed in the neck. […] Vascular resistance in one hind leg was recorded by an autoperfusion technique. […] Blockade of the heart rate and vascular resistance response to isoproterenol was calculated for each dose and expressed as percent decrease of the response obtained when isoproterenol was injected before any dose of the test compound. […]

For test [2], the target named is T2, β-receptors (vascular resistance in one hind leg) (Felis catus, UniProt Q9TST5).
T2 construct: from tissue; host or cells: hind-leg vasculature of the living, reserpinized, anesthetized cat (in vivo)
Put plainly: β-blockade of isoprenaline peripheral resistance response (hind leg), reserpinized anesthetized cat. The test is classed as in vivo. Particulars: iv, 0.012-51.2 μmol/kg, isoproterenol 0.1 μg/kg i.v. As to the method: (§1) The agents of the present invention were tested as regards their biological properties. All compounds were thereby tested in anesthetized cats (males and females weighing 2.5-3.5 kg) pretreated with reserpine (5 mg/kg bodyweight administered intramuscularly) about 16 hours before the experiments. The animals were pretreated with reserpine in order to eliminate the endogenous sympathetic control of heart rate and vascular smooth muscle tone. The cats were anesthetized with pentobarbital (30 mg/kg bodyweight administered i.p.) and artificially ventilated with room air. A bilateral vagotomy was performed in the neck. Blood pressure was obtained from a cannulated carotid artery and heart rate was registered from a cardiotachometer, triggered by the electrocardiogram (ECG). Vascular resistance in one hind leg was recorded by an autoperfusion technique. Intrinsic beta mimetic activity on the heart was seen as increased heart rate after drug administration. The test compounds were given intravenously in logarithmically increasing doses. […] Blockade of the heart rate and vascular resistance response to isoproterenol was calculated for each dose and expressed as percent decrease of the response obtained when isoproterenol was injected before any dose of the test compound. […]

Test [3] deals with heart rate. Put plainly: Intrinsic beta mimetic activity on the heart, reserpinized cat. The test is classed as in vivo. The method, then: as §1
Test [4] addresses T3, α-receptors (Rattus norvegicus, UniProt P43140).
T3 construct: from tissue; host or cells: isolated rat vas deferens
T3 sequence (P43140 1-466): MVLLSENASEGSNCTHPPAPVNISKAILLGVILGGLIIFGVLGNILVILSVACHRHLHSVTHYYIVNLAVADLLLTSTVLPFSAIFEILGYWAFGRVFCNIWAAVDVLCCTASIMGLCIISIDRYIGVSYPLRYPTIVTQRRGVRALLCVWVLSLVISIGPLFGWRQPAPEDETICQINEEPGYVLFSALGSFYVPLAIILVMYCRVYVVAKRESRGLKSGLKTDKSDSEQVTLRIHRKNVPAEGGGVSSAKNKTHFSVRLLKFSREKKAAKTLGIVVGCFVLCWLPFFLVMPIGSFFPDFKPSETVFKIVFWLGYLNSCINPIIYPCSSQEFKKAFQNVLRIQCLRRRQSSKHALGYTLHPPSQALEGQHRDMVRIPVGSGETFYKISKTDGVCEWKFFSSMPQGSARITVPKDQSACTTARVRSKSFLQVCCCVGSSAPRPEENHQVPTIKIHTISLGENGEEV
Put plainly: α-receptor blocking activity in isolated rat vas deferens (noradrenaline contraction). As to conditions: read-out: pA2 (α-receptor blocking activity) (converted). The method, then:
α-receptor blocking activity was tested in isolated rat vas deferens. Noradrenaline administered to the organ bath induces a contraction in vas deferens by activating α-receptors. The ability of the test compounds to inhibit this noradrenaline response was studied. The α-receptor blocking activity was expressed as pA2 values. pA2 is defined as the negative logarithm of the concentration of an antagonist (in our case the test compounds) which leads to the fact that the dose of the agonist (in our case noradrenaline) has to be doubled in order to obtain the same effect of the agonist as that obtained without the antagonist present. Thus a high pA2 value indicates a high α-receptor blocking activity of a compound.

T1 sequence (Q9TST6 whole entry): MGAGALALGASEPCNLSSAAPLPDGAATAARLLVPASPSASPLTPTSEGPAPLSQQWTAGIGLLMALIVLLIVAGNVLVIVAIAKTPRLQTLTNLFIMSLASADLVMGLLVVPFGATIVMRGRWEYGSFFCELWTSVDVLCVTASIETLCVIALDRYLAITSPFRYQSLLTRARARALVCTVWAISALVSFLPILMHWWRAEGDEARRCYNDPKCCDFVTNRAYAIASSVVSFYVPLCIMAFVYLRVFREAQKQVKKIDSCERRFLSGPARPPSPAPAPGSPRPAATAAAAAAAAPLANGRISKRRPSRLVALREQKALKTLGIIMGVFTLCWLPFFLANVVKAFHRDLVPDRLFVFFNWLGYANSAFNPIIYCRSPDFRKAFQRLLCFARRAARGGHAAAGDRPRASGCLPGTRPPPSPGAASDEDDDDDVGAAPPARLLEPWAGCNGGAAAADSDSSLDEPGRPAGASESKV
T2 sequence (Q9TST5 whole entry): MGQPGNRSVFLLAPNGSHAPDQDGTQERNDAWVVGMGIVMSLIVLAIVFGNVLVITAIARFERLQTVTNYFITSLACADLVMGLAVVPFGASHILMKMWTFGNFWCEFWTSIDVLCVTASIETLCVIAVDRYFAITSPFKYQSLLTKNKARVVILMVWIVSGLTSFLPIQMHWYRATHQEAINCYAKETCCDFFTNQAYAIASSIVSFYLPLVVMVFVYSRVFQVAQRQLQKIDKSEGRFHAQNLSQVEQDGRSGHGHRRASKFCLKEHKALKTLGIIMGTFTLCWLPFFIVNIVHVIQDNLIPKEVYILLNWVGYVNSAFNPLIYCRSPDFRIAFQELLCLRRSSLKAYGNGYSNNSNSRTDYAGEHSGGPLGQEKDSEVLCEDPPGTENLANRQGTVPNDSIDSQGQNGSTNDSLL

What is called ED50 is the dose that gives a 50% effect, or the effect in half of the subjects. A low value points to an effect at a small dose. Broadly, the Emax is the maximal effect, on the per cent scale that the assay sets. Turning to `COCCNC(=O)COc1ccccc1OCC(O)CNCCOc1ccc(O)cc1` (centres unmarked) [3-[2-(4-hydroxyphenoxy)ethylamino]-1-o-methoxyethylaminocarbonylmethoxyphenoxy-propanol-2], the 50% effective dose (ED50) in test [1] was determined as 0.05 µmol/kg; in test [2], 1.8 µmol/kg. Also, the Emax in test [3] (Felis catus, iv, % of isoprenaline) is 0%. In addition, in test [3] (i.v.), the “Intrinsic activity Δbeats/min.” value amounted to 0 beats/min. The Kb in test [4] is 3.16 µM.
